Assays:
Type in all cases: in vivo
[1] = tested on: Beet Armyworm (BAW) (Spodoptera exigua); assay: Bioassay on beet armyworm (BAW), 128-well diet tray assay; conditions: Spodoptera exigua; beet armyworm, 50 μg/cm^2; read-out: % Mortality BAW 50 μg/cm^2
[2] = tested on: Corn Earworm (CEW) (Helicoverpa zea); assay: Bioassay on corn earworm (CEW), 128-well diet tray assay; conditions: Helicoverpa zea; corn earworm, 50 μg/cm^2; read-out: % Mortality CEW 50 μg/cm^2
In short: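 Activity was scored as percent larval mortality per well, averaged across eight wells and reported on a rating scale. Diet trays (128-well) were kept at 25° C with 14:10 light-dark for five to seven days.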

[3] = tested on: Green Peach Aphid (GPA) (Myzus persicae); assay: Bioassay on green peach aphid (GPA), foliar spray on cabbage seedlings; conditions: green peach aphid, 200 ppm, read-out: % Mortality GPA 200 ppm
In short: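 Cabbage seedlings (2-3 true leaves), each infested a day earlier with 20-50 wingless adult and nymph GPA, were sprayed on both leaf sides to runoff, four pots per treatment. Corrected % control was calculated against solvent-check plants.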

SMILES	mortality at 50 µg/cm2 [1]	mortality at 50 µg/cm2 [2]	mortality at 200 ppm [3]
CCc1ccccc1N1CCCS/C1=N\N=C\c1ccc(-c2ncn(-c3ccc(OC(F)(F)F)cc3)n2)cc1 [Compound 185C]	50 to 100%	50 to 100%	0%
FC(F)(F)Oc1ccc(-n2cnc(-c3ccc(/C=N/N=C4\SCCCN4c4ccccc4C4CC4)cc3)n2)cc1 [Compound 186C]	50 to 100%	50 to 100%	0 to 80%
FC(F)(F)Oc1ccc(-n2cnc(-c3ccc(/C=N/N=C4\SCCCN4c4c(Cl)cccc4Cl)cc3)n2)cc1 [Compound 187C]	50 to 100%	50 to 100%	0%
Fc1cccc(Cl)c1N1CCCS/C1=N\N=C\c1ccc(-c2ncn(-c3ccc(OC(F)(F)F)cc3)n2)cc1 [Compound 188C]	50 to 100%	50 to 100%	0 to 80%
Fc1cccc(F)c1N1CCCS/C1=N\N=C\c1ccc(-c2ncn(-c3ccc(OC(F)(F)F)cc3)n2)cc1 [Compound 189C]	50 to 100%	50 to 100%	0 to 80%
FC(F)(F)Oc1ccc(-n2cnc(-c3ccc(/C=N/N=C4\SCCCN4c4c(Cl)cccc4C(F)(F)F)cc3)n2)cc1 [Compound 190C]	50 to 100%	50 to 100%	0 to 80%
COc1ccccc1N1CCCS/C1=N\N=C\c1ccc(-c2ncn(-c3ccc(OC(F)(F)F)cc3)n2)cc1 [Compound 191C]	50 to 100%	50 to 100%	0%
COc1ccc(N2CCCS/C2=N\N=C\c2ccc(-c3ncn(-c4ccc(OC(F)(F)F)cc4)n3)cc2)c(C)c1 [Compound 192C]	50 to 100%	50 to 100%	0 to 80%
CC(C)Cc1ccccc1N1CCCS/C1=N\N=C\c1ccc(-c2ncn(-c3ccc(OC(F)(F)F)cc3)n2)cc1 [Compound 193C]	50 to 100%	50 to 100%	0 to 80%
FC(F)(F)Oc1ccc(-n2cnc(-c3ccc(/C=N/N=C4\SCCCN4c4ccccc4-c4ccccc4)cc3)n2)cc1 [Compound 194C]	50 to 100%	50 to 100%	0 to 80%
Cc1ccccc1N1CCCS/C1=N\N=C\c1ccc(-c2ncn(-c3ccc(OC(F)(F)F)cc3)n2)cc1 [Compound 195C]	50 to 100%	50 to 100%	0 to 80%
Cc1cccc(Cl)c1N1CCCS/C1=N\N=C\c1ccc(-c2ncn(-c3ccc(OC(F)(F)F)cc3)n2)cc1 [Compound 196C]	50 to 100%	50 to 100%	0%
CC(C)=Cc1ccccc1N1CCCS/C1=N\N=C\c1ccc(-c2ncn(-c3ccc(OC(F)(F)F)cc3)n2)cc1 [Compound 197C]	50 to 100%	50 to 100%	0%
Cc1cccnc1N1CCCS/C1=N\N=C\c1ccc(-c2ncn(-c3ccc(OC(F)(F)F)cc3)n2)cc1 [Compound 198C]	50 to 100%	50 to 100%	0%
COc1ccc(N2CCCS/C2=N\N=C\c2ccc(-c3ncn(-c4ccc(OC(F)(F)F)cc4)n3)cc2)cc1 [Compound 202C]	50 to 100%	50 to 100%	0 to 80%
Cc1cc(Br)cc(C)c1N1CCCS/C1=N\N=C\c1ccc(-c2ncn(-c3ccc(OC(F)(F)F)cc3)n2)cc1 [Compound 203C]	50 to 100%	50 to 100%	0 to 80%
COc1ccc(C)cc1N1CCCS/C1=N\N=C\c1ccc(-c2ncn(-c3ccc(OC(F)(F)F)cc3)n2)cc1 [Compound 204C]	50 to 100%	50 to 100%	0 to 80%
Cc1ncccc1N1CCCS/C1=N\N=C\c1ccc(-c2ncn(-c3ccc(OC(F)(F)F)cc3)n2)cc1 [Compound 205C]	50 to 100%	50 to 100%	0 to 80%
COc1cccc(N2CCCS/C2=N\N=C\c2ccc(-c3ncn(-c4ccc(OC(F)(F)F)cc4)n3)cc2)c1 [Compound 206C]	50 to 100%	50 to 100%	0%
CCOc1ccccc1N1CCCS/C1=N\N=C\c1ccc(-c2ncn(-c3ccc(OC(F)(F)F)cc3)n2)cc1 [Compound 208C]	50 to 100%	50 to 100%	0%
Cc1cccc(C)c1N1CCCCS/C1=N\N=C\c1ccc(-c2ncn(-c3ccc(OC(F)(F)F)cc3)n2)cc1 [Compound 211C]	50 to 100%	50 to 100%	0%

SMILES	mortality at 50 µg/cm2 [1]	mortality at 50 µg/cm2 [2]	mortality at 200 ppm [3]
CC(C)c1ccccc1N1CCCCS/C1=N\N=C\c1ccc(-c2ncn(-c3ccc(OC(F)(F)F)cc3)n2)cc1 [Compound 212C]	50 to 100%	50 to 100%	0%
CCc1cccc(C)c1N1/C(=N/N=C/c2ccc(-c3ncn(-c4ccc(OC(F)(F)F)cc4)n3)cc2)SCCC1C (stereo not drawn) [Compound 213C]	50 to 100%	50 to 100%	0 to 80%
CC(C)c1ccccc1N1C(=O)CCS/C1=N\N=C\c1ccc(-c2ncn(-c3ccc(OC(F)(F)F)cc3)n2)cc1 [Compound 224C]	50 to 100%	50 to 100%	0 to 80%
CC1(O)CS/C(=N\N=C\c2ccc(-c3ncn(-c4ccc(OC(F)(F)F)cc4)n3)cc2)N1c1c(F)cccc1F (stereo not drawn) [Compound 240C]	50 to 100%	50 to 100%	0%
CC(C)c1ccccc1N1/C(=N/N=C/c2ccc(-c3ncn(-c4ccc(OC(F)(F)F)cc4)n3)cc2)SCC1(C)O (stereo not drawn) [Compound 242C]	50 to 100%	50 to 100%	0 to 80%
CCC(C)c1ccccc1N1/C(=N/N=C/c2ccc(-c3ncn(-c4ccc(OC(F)(F)F)cc4)n3)cc2)SCC1(C)O (stereo not drawn) [Compound 243C]	50 to 100%	50 to 100%	0 to 80%
Cc1cccc(Cl)c1N1/C(=N/N=C/c2ccc(-c3ncn(-c4ccc(OC(F)(F)F)cc4)n3)cc2)SCC1(C)O (stereo not drawn) [Compound 244C]	50 to 100%	50 to 100%	0%
COc1ccc(N2/C(=N/N=C/c3ccc(-c4ncn(-c5ccc(OC(F)(F)F)cc5)n4)cc3)SCC2(C)O)c(C)c1 (stereo not drawn) [Compound 245C]	50 to 100%	50 to 100%	0 to 80%
Cc1ccccc1N1/C(=N/N=C/c2ccc(-c3ncn(-c4ccc(OC(F)(F)F)cc4)n3)cc2)SCC1(C)O (stereo not drawn) [Compound 248C]	50 to 100%	50 to 100%	0 to 80%
CC(C)c1cccc(F)c1N1/C(=N/N=C/c2ccc(-c3ncn(-c4ccc(OC(F)(F)F)cc4)n3)cc2)SCC1(C)O (stereo not drawn) [Compound 250C]	50 to 100%	50 to 100%	0 to 80%
Cc1ccc(N2/C(=N/N=C/c3ccc(-c4ncn(-c5ccc(OC(F)(F)F)cc5)n4)cc3)SCC2(C)O)c(C(C)C)c1 (stereo not drawn) [Compound 251C]	50 to 100%	50 to 100%	0 to 80%
Cc1ccc(C(C)C)c(N2/C(=N/N=C/c3ccc(-c4ncn(-c5ccc(OC(F)(F)F)cc5)n4)cc3)SCC2(C)O)c1 (stereo not drawn) [Compound 253C]	50 to 100%	50 to 100%	0%
CCc1ccccc1N1/C(=N/N=C/c2ccc(-c3ncn(-c4ccc(OC(F)(F)F)cc4)n3)cc2)SCC1(C)O (stereo not drawn) [Compound 254C]	50 to 100%	50 to 100%	0 to 80%
COc1cc(C)c(N2/C(=N/N=C/c3ccc(-c4ncn(-c5ccc(OC(F)(F)F)cc5)n4)cc3)SCC2(C)O)c(C)c1 (stereo not drawn) [Compound 255C]	50 to 100%	50 to 100%	0%
CCCc1ccccc1N1/C(=N/N=C/c2ccc(-c3ncn(-c4ccc(OC(F)(F)F)cc4)n3)cc2)SCC1(C)O (stereo not drawn) [Compound 256C]	50 to 100%	50 to 100%	0 to 80%
CC(C)c1ccccc1N1/C(=N/N=C/c2ccc(-c3ncn(-c4ccc(OC(F)(F)F)cc4)n3)cc2)SC(C)C1(C)O (stereo not drawn) [Compound 257C]	50 to 100%	50 to 100%	0%
CC(C)c1cc(F)c(F)cc1N1/C(=N/N=C/c2ccc(-c3ncn(-c4ccc(OC(F)(F)F)cc4)n3)cc2)SCC1(C)O (stereo not drawn) [Compound 259C]	50 to 100%	50 to 100%	0%
CC(C)c1ccccc1N1/C(=N/N=C/c2ccc(-c3ncn(-c4ccc(C(F)(C(F)(F)F)C(F)(F)F)cc4)n3)cc2)SCC1(C)O (stereo not drawn) [Compound 260C]	50 to 100%	50 to 100%	0%
CC(C)c1ccccc1N1/C(=N/N=C/c2ccc(-c3ncn(-c4ccc(C(F)(F)F)cc4)n3)cc2)SCC1(C)O (stereo not drawn) [Compound 261C]	50 to 100%	50 to 100%	0%
CC(C)c1ccccc1N1/C(=N/N=C/c2ccc(-c3ncn(-c4ccc(OC(F)(F)C(F)(F)F)cc4)n3)cc2)SCC1(C)O (stereo not drawn) [Compound 262C]	50 to 100%	50 to 100%	0 to 80%
CC(C)c1ccccc1N1/C(=N/N=C/c2ccc(-c3ncn(-c4ccc(OC(F)(F)F)cc4)n3)cc2)SCC1(O)c1ccccc1C(F)(F)F (stereo not drawn) [Compound 263C]	50 to 100%	50 to 100%	0 to 80%

Source: patent US8916183B2, “Pesticidal compositions and processes related thereto” (priority 2012, dated 2014)
